From ChEMBL document CHEMBL2321769, “Regioselective synthesis of 5- and 6-methoxybenzimidazole-1,3,5-triazines as inhibitors of phosphoinositide 3-kinase” (Bioorg Med Chem Lett, 2013)

How the values were obtained:
[1] = target: Phosphatidylinositol 4,5-bisphosphate 3-kinase catalytic subunit alpha isoform (Homo sapiens, UniProt P42336); test: Inhibition of PI3Kalpha (unknown origin) expressed in SF21 cells using phosphatidylinositol as substrate after 60 mins by Kinase-Glo assay
[2] = target: T1, Phosphatidylinositol 4,5-bisphosphate 3-kinase catalytic subunit delta isoform (Homo sapiens, UniProt O00329); test: Inhibition of PI3Kdelta (unknown origin) expressed in SF21 cells using phosphatidylinositol as substrate after 60 mins by Kinase-Glo assay
T1 sequence (O00329 whole entry): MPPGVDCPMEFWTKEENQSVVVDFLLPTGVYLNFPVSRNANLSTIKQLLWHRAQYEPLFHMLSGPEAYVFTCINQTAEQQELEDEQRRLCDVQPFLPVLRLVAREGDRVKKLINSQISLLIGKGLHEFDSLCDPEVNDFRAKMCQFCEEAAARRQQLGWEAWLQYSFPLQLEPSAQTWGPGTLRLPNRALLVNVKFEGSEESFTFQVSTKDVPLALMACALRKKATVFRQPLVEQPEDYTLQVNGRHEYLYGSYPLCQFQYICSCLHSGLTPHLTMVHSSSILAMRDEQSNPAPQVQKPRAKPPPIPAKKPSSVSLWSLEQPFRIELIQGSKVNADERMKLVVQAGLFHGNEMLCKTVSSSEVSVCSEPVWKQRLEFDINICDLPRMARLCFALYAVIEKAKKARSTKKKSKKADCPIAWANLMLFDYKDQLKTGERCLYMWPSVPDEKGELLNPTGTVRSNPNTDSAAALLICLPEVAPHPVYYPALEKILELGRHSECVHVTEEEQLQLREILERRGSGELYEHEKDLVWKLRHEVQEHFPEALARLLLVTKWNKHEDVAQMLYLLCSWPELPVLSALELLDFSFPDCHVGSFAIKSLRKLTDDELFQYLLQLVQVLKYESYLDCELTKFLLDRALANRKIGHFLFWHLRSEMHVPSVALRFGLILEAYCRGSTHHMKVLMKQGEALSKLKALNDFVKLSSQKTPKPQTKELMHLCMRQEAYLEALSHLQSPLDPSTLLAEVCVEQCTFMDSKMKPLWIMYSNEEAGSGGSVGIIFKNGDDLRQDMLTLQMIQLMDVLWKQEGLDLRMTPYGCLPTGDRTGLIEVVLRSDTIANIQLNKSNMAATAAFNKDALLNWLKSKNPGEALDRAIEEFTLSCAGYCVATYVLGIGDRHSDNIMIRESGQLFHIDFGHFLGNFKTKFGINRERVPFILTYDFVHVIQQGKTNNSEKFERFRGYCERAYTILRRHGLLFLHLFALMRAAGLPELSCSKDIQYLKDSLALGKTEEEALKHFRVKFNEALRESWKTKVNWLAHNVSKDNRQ

[3] = target: Phosphatidylinositol 4,5-bisphosphate 3-kinase catalytic subunit gamma isoform (Homo sapiens, UniProt P48736); test: Inhibition of PI3Kgamma (unknown origin) expressed in SF21 cells using phosphatidylinositol as substrate after 60 mins by Kinase-Glo assay
Sequence of Phosphatidylinositol 4,5-bisphosphate 3-kinase catalytic subunit gamma isoform (P48736 whole entry, canonical isoform): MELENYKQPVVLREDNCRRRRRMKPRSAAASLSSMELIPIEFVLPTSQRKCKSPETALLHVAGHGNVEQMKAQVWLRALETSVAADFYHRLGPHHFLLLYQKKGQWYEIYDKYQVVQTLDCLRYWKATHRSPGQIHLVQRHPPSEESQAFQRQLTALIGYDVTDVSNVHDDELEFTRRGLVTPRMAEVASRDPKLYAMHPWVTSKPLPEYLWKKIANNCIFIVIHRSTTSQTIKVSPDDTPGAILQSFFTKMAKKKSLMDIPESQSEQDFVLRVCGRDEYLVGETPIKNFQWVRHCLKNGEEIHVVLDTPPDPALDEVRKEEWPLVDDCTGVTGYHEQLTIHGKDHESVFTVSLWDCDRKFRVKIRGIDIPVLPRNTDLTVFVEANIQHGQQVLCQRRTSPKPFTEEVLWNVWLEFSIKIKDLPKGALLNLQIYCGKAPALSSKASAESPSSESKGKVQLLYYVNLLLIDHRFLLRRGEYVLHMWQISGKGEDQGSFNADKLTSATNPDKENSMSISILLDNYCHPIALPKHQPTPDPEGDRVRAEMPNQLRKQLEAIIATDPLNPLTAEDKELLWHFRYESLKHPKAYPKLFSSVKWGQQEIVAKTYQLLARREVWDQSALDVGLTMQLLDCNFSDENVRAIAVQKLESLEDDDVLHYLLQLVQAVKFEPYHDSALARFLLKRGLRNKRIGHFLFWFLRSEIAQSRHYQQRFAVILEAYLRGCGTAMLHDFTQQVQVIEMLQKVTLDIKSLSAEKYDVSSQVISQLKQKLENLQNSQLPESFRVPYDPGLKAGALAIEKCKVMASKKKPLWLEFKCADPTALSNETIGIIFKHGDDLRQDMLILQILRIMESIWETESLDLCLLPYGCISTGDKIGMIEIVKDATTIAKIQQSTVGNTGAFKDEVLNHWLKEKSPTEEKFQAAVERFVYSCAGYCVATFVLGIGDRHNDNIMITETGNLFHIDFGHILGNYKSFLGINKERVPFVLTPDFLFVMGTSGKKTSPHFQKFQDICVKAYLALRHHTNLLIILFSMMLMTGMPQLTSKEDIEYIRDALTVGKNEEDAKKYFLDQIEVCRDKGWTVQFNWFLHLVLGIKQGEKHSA

[4] = target: Phosphatidylinositol 4,5-bisphosphate 3-kinase catalytic subunit beta isoform (Homo sapiens, UniProt P42338); test: Inhibition of PI3Kbeta (unknown origin) expressed in SF21 cells using phosphatidylinositol as substrate after 60 mins by Kinase-Glo assay
Sequence of Phosphatidylinositol 4,5-bisphosphate 3-kinase catalytic subunit beta isoform (P42338 whole entry, canonical isoform): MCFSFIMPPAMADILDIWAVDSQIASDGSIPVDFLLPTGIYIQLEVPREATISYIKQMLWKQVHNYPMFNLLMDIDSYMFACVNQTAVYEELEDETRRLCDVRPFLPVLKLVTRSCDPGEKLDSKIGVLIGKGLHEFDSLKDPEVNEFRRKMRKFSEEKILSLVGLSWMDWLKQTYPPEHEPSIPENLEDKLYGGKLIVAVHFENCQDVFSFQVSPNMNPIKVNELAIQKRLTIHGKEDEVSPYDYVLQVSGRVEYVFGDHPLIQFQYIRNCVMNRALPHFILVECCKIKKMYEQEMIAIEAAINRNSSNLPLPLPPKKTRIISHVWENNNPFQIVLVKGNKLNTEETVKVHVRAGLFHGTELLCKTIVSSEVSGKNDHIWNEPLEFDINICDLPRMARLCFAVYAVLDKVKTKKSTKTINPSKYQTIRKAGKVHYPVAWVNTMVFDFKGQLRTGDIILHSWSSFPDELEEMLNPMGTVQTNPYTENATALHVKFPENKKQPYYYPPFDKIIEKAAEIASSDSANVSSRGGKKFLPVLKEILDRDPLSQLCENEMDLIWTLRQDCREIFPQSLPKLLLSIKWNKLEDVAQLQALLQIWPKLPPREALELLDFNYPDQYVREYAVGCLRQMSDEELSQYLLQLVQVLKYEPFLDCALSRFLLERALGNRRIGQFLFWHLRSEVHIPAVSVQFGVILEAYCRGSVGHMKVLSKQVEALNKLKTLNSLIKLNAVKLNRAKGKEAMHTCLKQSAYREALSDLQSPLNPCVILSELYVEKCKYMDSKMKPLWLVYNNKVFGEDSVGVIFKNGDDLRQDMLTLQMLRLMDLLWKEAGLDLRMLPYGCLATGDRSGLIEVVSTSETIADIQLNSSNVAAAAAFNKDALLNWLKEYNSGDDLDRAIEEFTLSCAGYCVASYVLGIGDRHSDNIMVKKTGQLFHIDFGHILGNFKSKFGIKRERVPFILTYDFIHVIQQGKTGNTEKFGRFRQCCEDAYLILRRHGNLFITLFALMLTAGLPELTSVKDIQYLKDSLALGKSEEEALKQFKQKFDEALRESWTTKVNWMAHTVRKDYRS

Sequence of Phosphatidylinositol 4,5-bisphosphate 3-kinase catalytic subunit alpha isoform (P42336 whole entry, canonical isoform): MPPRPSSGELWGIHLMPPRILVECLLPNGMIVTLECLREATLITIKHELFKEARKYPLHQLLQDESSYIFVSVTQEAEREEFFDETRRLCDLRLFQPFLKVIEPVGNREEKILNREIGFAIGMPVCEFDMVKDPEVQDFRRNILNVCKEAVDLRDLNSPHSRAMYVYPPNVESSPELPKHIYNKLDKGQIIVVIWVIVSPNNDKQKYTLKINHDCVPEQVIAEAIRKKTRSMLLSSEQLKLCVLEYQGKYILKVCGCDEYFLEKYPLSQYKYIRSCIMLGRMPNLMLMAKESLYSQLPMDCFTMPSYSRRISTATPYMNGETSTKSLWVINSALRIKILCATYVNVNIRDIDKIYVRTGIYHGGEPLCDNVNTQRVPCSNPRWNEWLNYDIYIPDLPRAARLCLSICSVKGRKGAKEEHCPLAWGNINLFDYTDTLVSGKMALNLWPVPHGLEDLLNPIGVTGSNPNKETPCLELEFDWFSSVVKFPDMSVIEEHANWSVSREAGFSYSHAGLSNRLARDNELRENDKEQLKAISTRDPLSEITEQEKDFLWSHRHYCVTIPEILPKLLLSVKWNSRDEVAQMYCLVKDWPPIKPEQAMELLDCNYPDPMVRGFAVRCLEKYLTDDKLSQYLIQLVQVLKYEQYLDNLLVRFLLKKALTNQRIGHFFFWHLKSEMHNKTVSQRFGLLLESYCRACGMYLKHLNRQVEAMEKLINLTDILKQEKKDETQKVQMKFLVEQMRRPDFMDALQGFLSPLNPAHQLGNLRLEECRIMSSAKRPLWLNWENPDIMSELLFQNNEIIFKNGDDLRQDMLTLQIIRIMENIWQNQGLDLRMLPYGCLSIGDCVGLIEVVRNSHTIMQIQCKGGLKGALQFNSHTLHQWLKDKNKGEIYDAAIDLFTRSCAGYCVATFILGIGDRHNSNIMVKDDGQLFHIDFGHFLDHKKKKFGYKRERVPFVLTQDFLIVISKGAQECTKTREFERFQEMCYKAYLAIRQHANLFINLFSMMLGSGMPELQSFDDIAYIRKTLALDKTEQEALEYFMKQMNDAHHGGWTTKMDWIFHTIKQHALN

IC50 [1] [nM]	IC50 [2] [nM]	IC50 [3] [nM]	IC50 [4] [nM]	SMILES
> 5000	> 1000	> 10000	> 10000	COc1ccc2c(c1)nc(C(F)F)n2-c1nc(N2CCOCC2)nc(N2CCOCC2)n1
375	110	> 10000	214	COc1ccc2nc(C(F)F)n(-c3nc(N4CCOCC4)nc(N4CCOCC4)n3)c2c1
9200	2770	> 10000	> 10000	COc1ccc2c(c1)nc(C)n2-c1nc(N2CCOCC2)nc(N2CCOCC2)n1
> 10000	1120	> 10000	> 10000	COc1ccc2c(c1)nc(C(C)C)n2-c1nc(N2CCOCC2)nc(N2CCOCC2)n1

The remaining lines, values behind:

SMILES	IC50 [1] [nM]	IC50 [2] [nM]	IC50 [3] [nM]	IC50 [4] [nM]
Cc1nc2ccccc2n1-c1nc(N2CCOCC2)nc(N2CCOCC2)n1	290	187	1860	523
COc1ccc2nc(C)n(-c3nc(N4CCOCC4)nc(N4CCOCC4)n3)c2c1	823	458	> 10000	1790
CC(C)c1nc2ccccc2n1-c1nc(N2CCOCC2)nc(N2CCOCC2)n1	431	128	2530	419
COc1ccc2nc(C(C)C)n(-c3nc(N4CCOCC4)nc(N4CCOCC4)n3)c2c1	1050	423	> 10000	726
